Assay results from article PMC8277899, “A novel RyR1-selective inhibitor prevents and rescues sudden death in mouse models of malignant hyperthermia and heat stroke” (Nature Communications, 2021).
≈ marks a conversion by molar mass, not a printed value. Counter-ions that a name gives are not always drawn.

What was measured:
[1] = Thermodynamic solubility in solutions for injection; conditions: 25 °C; for solubility at 48 h: thermodynamic from solid
[2] = cited from earlier work
RyR1 channel = tested on: RyR1 channel; design: method as in PMID 31299492; conditions: HEK293 cell-based assay; read-out: IC50 for inhibiting the RyR1 channel; cited from earlier work

## CCCCCCCCn1cc(C(=O)O)c(=O)c2cc3c(cc21)OCO3 [Cpd1 sodium salt]
[1]; 5% glucose aqueous solution, saline or isotonic
  solubility at 48 h: 351 ± 14 µg/mL
[1]; Normal saline (0.9% NaCl), 48 h
  Solubility: 849 ± 58 (4) µg/mL
[1]; pure water, water
  solubility at 48 h: 1360 ± 220 µg/mL

## O=C1CN(/N=C/c2ccc(-c3ccc([N+](=O)[O-])cc3)o2)C(O)=N1 [dantrolene]
[1]; normal saline (0.9% NaCl), saline or isotonic
  solubility at 48 h: 25.7 ± 2.1 µg/mL (≈ 81.8 µM)
[2]
  plasma half-life (t1/2): 12 h
[2]; in humans after intravenous injection
  plasma half-life: 10 to 12 h

## CCn1cc(C(=O)O)c(=O)c2cc3c(cc21)OCO3 [oxolinic acid, reference compound]
RyR1 channel
  IC50: 810 nM
